Earlier results in patent US11696905B2, “Ready-to-use tranexamic acid intravenous solution” (Boulevard Patience et Beaujonc Nº3/1, priority 2018, dated 2023).

How the values were obtained:
[1] = oral administration
[2] = four doses of 10-20 mg per kg body weight 36-48 hours before surgery

NC[C@H]1CC[C@H](C(=O)O)CC1 [Tranexamic acid, trans-4-(aminomethyl)cyclohexanecarboxylic acid]
time antifibrinolytically active concentration remained in the serum [2]: 7 to 8 h
time antifibrinolytically active concentration remained in the tissues investigated [2]: up to 17 hours
antifibrinolytically active concentration (in vivo): 10 µg/mL
absorption from the human gastrointestinal tract [1]: 40%
